What was measured:
NCM460 cells = experiment: MTS cell viability assay, NCM460 normal colon epithelial cells; format: cell-based, human; settings: Homo sapiens, 48 h
Description: (§1) Human colorectal cancer cell lines including RKO, SW620 and SW480 were purchased from Chinese Academy of Sciences, a typical cell library culture preservation committee (Shanghai, China). Normal human colon epithelial cell line NCM460 was purchased from ATCC (Washington, DC, USA). RPMI-1640 medium (12633020), foetal bovine serum (FBS, 26170043), penicillin-streptomycin (10378016) and phosphate buffered saline (PBS, 70011044) were purchased from Gibco (Eggenstein, Germany). 5-Fluorouracil (5-FU, E0201010050, purity ≥98%) was purchased from Energy Chemical (Shanghai, China). Dimethyl sulfoxide (DMSO, 41639) was obtained from Sigma-Aldrich (St. Louis, MO). 3–(4,5-dimethylthiazol-2-yl)-5–(3-carboxymethoxyphenyl)-2–(4-sulfophenyl)-2H-tetrazolium (MTS, G1111) was purchased from Promega (Madison, WI, USA). All cell lines were cultured in RPMI-1640 medium supplemented with 10% FBS, penicillin (100 units/mL) and streptomycin ([…]) at 37 °C in a humidified atmosphere containing 5% CO2.
(§2) Cell viability was measured via MTS assay. RKO, SW620, SW480 and NCM460 cells were seeded in 96-well plates at a density of 5000 cells per well for 24 h. After treatment with the test compounds at indicated concentration for another 48 h or 72 h at 37 °C, MTS solution was added to each well and incubated for another 30 min at 37 °C. Then, the absorbance at 490 nm was measured by a BioTek Synergy H4 microplate Reader (Vermont, USA). The IC50 values were calculated with Graphpad 7.0 software packages.

[1] = as above; format: cell-based, human; settings: human, NCM460 normal colon epithelial cells, 10 μM
Description: as §1, §2

RKO cells = experiment: MTS cell viability assay, RKO cells; format: cell-based; settings: Homo sapiens, 72 h
Description: as §1, §2

SW620 cells [2] = experiment: Colony formation, SW620 cells; format: cell-based, human; settings: 0 to 32 μM for 24 h, then 10 days
Protocol: (§3) SW620 and SW480 cells were seeded in 6-well plates (1000 cells per well) and cultured in RPMI-1640 medium containing 10% FBS overnight. After the cells treatment with DMSO or compound ID-11 (4, 8, 16, and 32 μM) for 24 h, the culture medium was replaced by fresh RPMI-1640 medium (containing 10% FBS) and continue culturing for another 10 days. Then the cells were washed with PBS and fixed with methanol for 15 min and stained with 0.1% crystal violet for another 30 min. Finally, the cells were washed with running water, air-dried and visualised by photographing.

SW480 cells [3] = experiment: Colony formation, SW480 cells; format: cell-based, human; settings: 0 to 32 μM for 24 h, then 10 days
Protocol: as §3

SW620 cells [4] = experiment: Cell cycle analysis (PI, flow cytometry), SW620 cells; format: cell-based, human; settings: SW620, 16 μM, 24 h
Protocol: Cells were seeded in 6-well plates (40,000 cells per well) and cultured in RPMI-1640 medium containing 10% FBS overnight. Then the cells were exposed to DMSO or compound ID-11 (8 or 16 μM) for 24 h. After that, cells were collected, washed with cold PBS for twice and fixed in 75% ethanol overnight at 4 °C. Subsequently, ethanol was removed and suspended in PBS for twice, and then RNase A and propidium iodide (PI) (Multi Sciences, Hangzhou, China) was added and keep in the darkness for 30 min. Finally, the percentages of cells in different cell cycle phases were measured using a FACS Calibur flow cytometer (Bectone Dickinson, San Jose, CA, USA).

SW480 cells [5] = experiment: Western blot assay, SW480 cells; format: cell-based, human; settings: 24 h
Protocol: Cells were cultured in 6-well plates at a density of 40,000 cells per well overnight, and then exposed to selected compounds at different concentrations for 24 h. Subsequently, the cells were lysed in lysate buffer containing 50 mM Tris-HCl (PH 6.8), 2% SDS, 0.1% bromophenol blue, 1.5% DTT, 10% glycerol. The total protein extracts were boiled, sonicated, separated by 10–12% SDS-PAGE gels and transferred to polyvinylidene fluoride (PVDF) membranes. Then the membranes were blocked with 5% non-fat milk at room temperature for 1 h and incubated with primary antibodies at 4 °C overnight. After that, membranes were washed with 1× TBST for three times and incubated with secondary antibody at room temperature for 2 h. Finally, after washing with 1× TBST for three times, the bolts were visualised by an enhanced chemiluminescence kit (Beyotime, China) using the Amersham Imager 600 system (GE Healthcare Life Science, Shanghai, China).

SW620 cells [6] = experiment: Quantitative RT-PCR, SW620 cells; format: cell-based, human; settings: SW620, 0 to 24 μM, 24 h, qRT-PCR
Protocol: Cells (50,000 cells per well) incubated in 6-well plates were treated with compound ID-11 for 24 h. After that, the total RNA was extracted using Total RNA Extraction Reagent (Invitrogen, USA) according to the manufacturer’s instructions and quantified with NanoDrop 2000 (Nanodrop, USA). Then the cDNA was synthesized from total RNA using High-Capacity cDNA Reverse Transcription Kit (Applied Biosystems, USA). The SYBR Green Master reagents (Applied Biosystems, USA) was used to determine the relative expression of mRNA level by quantitative real-time PCR (qRT-PCR). The primer sequences are shown below.

SW480 cells [7] = experiment: MTS cell viability assay, SW480 cells; format: cell-based; settings: Homo sapiens, 72 h
Description: as §1, §2

- IC50 (SW480 cells [7]): 3.57 µM
SMILES: O=c1ccc2cc(CSC(=S)n3ccnc3)ccc2o1 [ID-11, (2-Oxo-2H-chromen-6-yl)methyl 1H-imidazole-1-carbodithioate]
- IC50 (NCM460 cells): 23.9 µM
- viability at 48 h, 10 µM [1]: 80.8%
- viability at 10 µM (RKO cells; 10 μM): 29.4%
- IC50 (RKO cells): 6.4 µM
- colony formation (SW620 cells [2]): effectively inhibited
- colony formation (SW480 cells [3]): effectively inhibited
- cell cycle distribution G2 (G2/M phase) (SW620 cells [4]): 33.13%
- expression level of cdc2 (SW480 cells [5]; SW480, 0 to 16 μM): decreased in a concentration-dependent way
- expression level of cleaved PARP (SW480 cells [5]; SW480, 0 to 16 μM): increased in a dose-dependent way
- expression level of cyclin B1 (SW480 cells [5]; SW480, 0 to 16 μM): decreased in a concentration-dependent way
- protein expression level of Bcl-2 (SW480 cells [5]; SW480, 0 to 24 μM): decreased
- protein expression level of c-Myc (SW480 cells [5]; SW480, 0 to 24 μM): decreased
- mRNA relative expression level of Bcl-2 (SW620 cells [6]): also decreased in a concentration dependent way
- mRNA relative expression level of c-Myc (SW620 cells [6]): also decreased in a concentration dependent way
- viability at 10 µM (SW480 cells [7]; 10 μM): 20.2%

Source: article PMC8759731, “Design, synthesis, and evaluation of novel coumarin-dithiocarbamate derivatives (IDs) as anti-colorectal cancer agents” (Journal of Enzyme Inhibition and Medicinal Chemistry, 2021)
